pEC50: −log10 of the molar value.

This experiment deals with T1, human GLP-1R receptor (Homo sapiens, UniProt P43220).
T1 construct: expressed in transfected cells
Kind of experiment: GLP-1R low expression cell assay (cAMP TR-FRET, CHO-K1_hGLP-1Rlow_clone10 cells). It is filed as cell-based. To be noted: for pEC50: cAMP TR-FRET, 30 min at 25° C.; for Emax: maximum activation relative to control GLP-1 peptide agonist. The protocol: Stable cell lines expressing high and low GLP-1R surface expression were generated in CHO-K1 cells transfected (Fugene 6) with a puromycin selectable DNA plasmid encoding human GLP-1R receptor (accession number: NM_002062.5) under control of an EF1A promoter. Transfected cells were seeded into 24-well plates (9,000 cells/well) containing complete medium and incubated in a humidified incubator at 37° C. with 5% carbon dioxide. After overnight incubation, medium was replaced with complete medium supplemented with puromycin (6 μg/mL) and refreshed every 2-3 days to select for stably transfected cells. Individual pools of selected cells were expanded prior to analysis for responsiveness to GLP-1 control peptide using a TR-FRET assay to detect cAMP (LANCE Ultra CAMP Assay, Perkin Elmer). Briefly, cells were collected in Versene solution, plated in 384-well plates (1,000 cells/well) and combined with serially diluted GLP-IR control peptide (10 nL) using an acoustic dispenser (ECHO). Plates were incubated for 30 minutes at 25° C. prior to the addition of EU-CAMP tracer (5 μL) and Ulight-anti-CAMP (5 μL) reagents to each well, followed by 15 minutes incubation at 25° C. TR-FRET signal was detected using an En Vision Multimode Plate Reader (excitation=320 nm; emission=615 and 655 nm). Dose-response curves were used to generate EC50 values as a measure of responsiveness to the GLP-IR control peptide. Selected cell lines were monitored for responsiveness over multiple passages to ensure stability. […] Briefly, GLP-IR expression was analyzed by flow cytometry using a fluorescein-labeled Exendin-4 peptide fluorescent probe (FLEX). Cells were harvested in Versene solution and washed 3-times with PBS+0.5% BSA before incubation with FLEX reagent (10 μM) for 2 hours at room temperature. After incubation, cells were washed 3-times in PBS+0.5% BSA before final resuspension in PBS prior to analysis by flow cytometry to measure FLEX mean fluorescence intensity (MFI) as a measure of GLP-IR expression on the cell surface.
For compound testing in the CHO-K1_hGLP-IRlow_clone10 cell line, cells were seeded in 384-well plates (1,000 cells/well). Test compounds were serially diluted in DMSO (10-point, 3-fold dilution), added to wells using an ECHO dispenser (10 nL/well) and plates were centrifuged for 1 min and agitated for 2 min at room temperature prior to 30-minute incubation at 25° C. After incubation, Eu-CAMP (5 μL) and Ulight-anti-cAMP (5 μL) reagents were added to each well, followed by centrifugation for 1 minute, agitation for 2 minutes at room temperature, and final incubation of the plates at 25° C. for 15 minutes. Plates were read using an EnVision microplate reader (excitation=320 nm; emission=615 and 655 nm). Dose-response curves were generated from duplicate wells based on percent activation calculated relative to a control GLP-1 peptide agonist that was run in parallel. EC50 values were determined by fitting percent activation as a function of compound concentration using the Hill equation (XLfit).
The compounds tested were compound samples prepared according to the General Procedures described in the Examples section.
For orientation: Time-resolved FRET reads energy transfer from a long-lived donor to a nearby acceptor.

T1 sequence (P43220 24-463): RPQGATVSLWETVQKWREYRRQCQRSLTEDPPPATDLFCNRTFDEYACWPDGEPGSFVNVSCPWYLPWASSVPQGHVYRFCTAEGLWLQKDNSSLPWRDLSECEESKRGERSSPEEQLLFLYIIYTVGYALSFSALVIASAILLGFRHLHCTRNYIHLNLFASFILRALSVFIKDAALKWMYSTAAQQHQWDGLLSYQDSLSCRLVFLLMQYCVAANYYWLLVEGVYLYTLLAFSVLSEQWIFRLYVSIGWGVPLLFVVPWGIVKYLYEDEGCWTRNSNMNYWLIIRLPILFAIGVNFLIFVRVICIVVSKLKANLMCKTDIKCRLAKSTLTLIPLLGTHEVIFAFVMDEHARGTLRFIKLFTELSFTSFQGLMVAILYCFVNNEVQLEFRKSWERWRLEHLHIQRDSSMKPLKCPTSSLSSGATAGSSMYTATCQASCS

As for `CCOc1cc(C(=O)O)cc2c1nc(CN1CCC(c3cccc4c3OC[C@H](c3ccc(Cl)cc3F)O4)CC1)n2C` [Compound 270, (S)-2-((4-(2-(4-Chloro-2-fluorophenyl)-2,3-dihydrobenzo[b][1,4]dioxin-5-yl)piperidin-1-yl)methyl)-4-ethoxy-1-methyl-1H-benzo[d]imidazole-6-carboxylic acid], the negative logarithm of the EC50 (pEC50) (in general, −log10 of the EC50, conventionally taken in molar units) is 7.00 to 8.00 and the Emax (in general, the maximal effect, on the per cent scale that the assay sets) was more than 85%.

Molecule `Cn1c(CN2CC=C(c3cccc(OCc4ccc(Cl)cc4F)n3)CC2)nc2c(OC(F)F)cc(C(=O)O)cc21` [Compound 155, 2-((6-((4-Chloro-2-fluorobenzyl)oxy)-3′,6′-dihydro-[2,4′-bipyridin]-1′(2′H)-yl)methyl)-4-(difluoromethoxy)-1-methyl-1H-benzo[d]imidazole-6-carboxylic acid] had a pEC50 of 7.00 to 8.00 and an Emax of more than 85%.

In turn, `Cn1c(CN2CCC(Oc3cccc(COc4ccc(Cl)cc4F)n3)CC2)nc2c(OC(F)F)cc(C(=O)O)cc21` [Compound 196, 2-((4-((6-((4-Chloro-2-fluorophenoxy)methyl)pyridin-2-yl)oxy)piperidin-1-yl)methyl)-4-(difluoromethoxy)-1-methyl-1H-benzo[d]imidazole-6-carboxylic acid] showed a pEC50 of 7.00 to 8.00 and an Emax of more than 85%.

The molecule `COc1cc(C(=O)O)cc2c1nc(CN1CCC(c3cccc4c3O[C@@H](c3ccc(C#N)cc3F)CO4)CC1)n2C` [Compound 314, (S)-2-((4-(3-(4-Cyano-2-fluorophenyl)-2,3-dihydrobenzo[b][1,4]dioxin-5-yl)piperidin-1-yl)methyl)-4-methoxy-1-methyl-1H-benzo[d]imidazole-6-carboxylic acid] had a pEC50 of less than 6.00 and an Emax of 25 to 50%.

Take `Cn1c(CN2CCC(c3cccc(OCc4ccc(C#N)cc4F)n3)CC2)nc2c(N3CCOCC3)cc(C(=O)O)cc21` [Compound 112, 2-((4-(6-((4-cyano-2-fluorobenzyl)oxy)pyridin-2-yl)piperidin-1-yl)methyl)-1-methyl-4-morpholino-1H-benzo[d]imidazole-6-carboxylic acid]: the pEC50 is 6.00 to 7.00 and the Emax is more than 85%.

`N#Cc1ccc(COc2cccc(C3CCN(Cc4nc5cc(C(=O)O)c6c(c5n4C[C@@H]4CCO4)OCCO6)CC3)n2)c(F)c1` [Compound 101, (S)-2-((4-(6-((4-Cyano-2-fluorobenzyl)oxy)pyridin-2-yl)piperidin-1-yl)methyl)-1-(oxetan-2-ylmethyl)-7,8-dihydro-1H-[1,4]dioxino[2′,3′:3,4]benzo[1,2-d]imidazole-5-carboxylic acid] had a pEC50 of 7.00 to 8.00 and an Emax of more than 85%.

For the molecule `COc1cc(C(=O)O)cc2c1nc(CN1CCC(c3cccc4c3OC[C@H](c3ccc(C#N)cc3F)O4)CC1)n2C` [Compound 274, (S)-2-((4-(2-(4-Cyano-2-fluorophenyl)-2,3-dihydrobenzo[b][1,4]dioxin-5-yl)piperidin-1-yl)methyl)-4-methoxy-1-methyl-1H-benzo[d]imidazole-6-carboxylic acid], the negative-log EC50 (pEC50) was less than 6.00 and the Emax was less than 25%.

In turn, `Cn1c(CN2CCC(c3cccc(OCc4ccc(OC(F)(F)F)cc4F)n3)CC2)nc2c(OC(F)F)cc(C(=O)O)cc21` [Compound 222] gave a negative-log EC50 (pEC50) of 6.00 to 7.00 and an Emax of more than 85%.

Regarding `Cn1c(CN2CCC(c3cccc(OCc4ccc(C#N)cc4F)n3)CC2)nc2c(OCCF)cc(C(=O)O)cc21` [Compound 183, 2-((4-(6-((4-Cyano-2-fluorobenzyl)oxy)pyridin-2-yl)piperidin-1-yl)methyl)-4-(2-fluoroethoxy)-1-methyl-1H-benzo[d]imidazole-6-carboxylic acid], the negative logarithm of the EC50 (pEC50) is more than 8.00 and the Emax is more than 85%.

On to `Cn1c(CN2CCC(c3ccc4c(c3)N(Cc3ccc(Cl)cc3F)CCO4)CC2)nc2c(OC(F)F)cc(C(=O)O)cc21` [Compound 373, 2-((4-(4-(4-Chloro-2-fluorobenzyl)-3,4-dihydro-2H-benzo[b][1,4]oxazin-6-yl)piperidin-1-yl)methyl)-4-(difluoromethoxy)-1-methyl-1H-benzo[d]imidazole-6-carboxylic acid], for which the pEC50 is less than 6.00 and the Emax is less than 25%.

With `C[C@H](c1nc2c(OC(F)F)cc(C(=O)O)cc2n1C)N1CCC(c2cccc(OCc3ccc(C#N)cc3F)n2)CC1` [Compound 122, (R)-2-(1-(4-(6-((4-Cyano-2-fluorobenzyl)oxy)pyridin-2-yl)piperidin-1-yl)ethyl)-4-(difluoromethoxy)-1-methyl-1H-benzo[d]imidazole-6-carboxylic acid], the pEC50 was less than 6.00 and the Emax was more than 85%.

Consider `COc1c(F)c(C(=O)O)cc2nc(CN3CCC(c4cccc(OCc5ccc(Cl)cc5F)n4)CC3)n(C)c12` [Compound 338, 2-((4-(6-((4-Chloro-2-fluorobenzyl)oxy)pyridin-2-yl)piperidin-1-yl)methyl)-6-fluoro-7-methoxy-1-methyl-1H-benzo[d]imidazole-5-carboxylic acid], for which the negative-log EC50 (pEC50) is less than 6.00 and the Emax lay within 50 to 85%.

The molecule `C[C@H](F)Oc1cc(C(=O)O)cc2c1nc(CN1CCC(c3cccc(OCc4ccc(Cl)cc4F)n3)CC1)n2C` (single isomer, unassigned) [Compound 360] gave a pEC50 of more than 8.00 and an Emax of more than 85%.

The molecule `Cn1c(CN2CCC(c3ccnc(OCc4ccc(C#N)cc4F)n3)CC2)nc2c(OC(F)F)cc(C(=O)O)cc21` [Compound 145, 2-((4-(2-((4-Cyano-2-fluorobenzyl)oxy)pyrimidin-4-yl)piperidin-1-yl)methyl)-4-(difluoromethoxy)-1-methyl-1H-benzo[d]imidazole-6-carboxylic acid] had a pEC50 of 6.00 to 7.00 and an Emax of more than 85%.

In the case of `COc1cc(C(=O)O)cc2c1nc([C@@H](C)N1CCC(c3cccc(OCc4ccc(C#N)cc4F)n3)CC1)n2C[C@@H]1CCO1` [Compound 94, 2-((R)-1-(4-(6-((4-Cyano-2-fluorobenzyl)oxy)pyridin-2-yl)piperidin-1-yl)ethyl)-4-methoxy-1-(((S)-oxetan-2-yl)methyl)-1H-benzo[d]imidazole-6-carboxylic acid], the pEC50 is less than 6.00 and the Emax was more than 85%.

`COc1cc(C(=O)O)cc2c1nc(Cc1ccc(-c3cccc(OCc4ccc(Cl)cc4F)n3)cc1F)n2C` [Compound 292, 2-(4-(6-((4-Chloro-2-fluorobenzyl)oxy)pyridin-2-yl)-2-fluorobenzyl)-4-methoxy-1-methyl-1H-benzo[d]imidazole-6-carboxylic acid] showed a pEC50 of more than 8.00 and a maximal effect (Emax) of more than 85%.

The molecule `O=C(O)c1ccc2nc(CN3CCC(c4cccc(OCc5ccc(Cl)cc5F)n4)CC3)c3c(c2c1)COCC3` [Compound 244, 5-((4-(6-((4-chloro-2-fluorobenzyl)oxy)pyridin-2-yl)piperidin-1-yl)methyl)-3,4-dihydro-1H-pyrano[4,3-c]quinoline-9-carboxylic acid] showed a pEC50 of less than 6.00 and an Emax of less than 25%.

`Cn1c(CN2CCC(c3cccc(OCc4ccc(Cl)cc4F)c3)CC2)nc2c(OC(F)F)cc(NCC(=O)O)cc21` [Compound 264, (2-((4-(3-((4-chloro-2-fluorobenzyl)oxy)phenyl)piperidin-1-yl)methyl)-4-(difluoromethoxy)-1-methyl-1H-benzo[d]imidazol-6-yl)glycine]: the pEC50 is less than 6.00 and the Emax fell in the range of 25 to 50%.

In turn, `C[C@H](F)Oc1cc(C(=O)O)cc2c1nc(CN1CCC(c3cccc(OCc4ccc(C#N)cc4F)n3)CC1)n2C` [Compound 313, (S)-2-((4-(6-((4-Cyano-2-fluorobenzyl)oxy)pyridin-2-yl)piperidin-1-yl)methyl)-4-(1-fluoroethoxy)-1-methyl-1H-benzo[d]imidazole-6-carboxylic acid] gave a pEC50 of 7.00 to 8.00 and a maximal effect (Emax) of more than 85%.

The values are drawn from US20240368120A1 (Terns Pharmaceuticals, Inc., priority 2023, published 2024).
